What all share (assay): Competitive isoTOP-ABPP in situ (fragment-treated cells)
Common to all, as to format: cell-based

Experiment [1] concerns the target cysteines in MDA-MB-231 and Ramos cells (Homo sapiens, UniProt P16455). As to conditions: 200 μM, insitu, ramos.
For experiment [2], the target named is cysteines in MDA-MB-231 and Ramos cells (Homo sapiens, UniProt Q9Y2S7). The settings on record: 200 μM, insitu, 231.
For experiment [3], the target named is T1, cysteines in MDA-MB-231 and Ramos cells (Homo sapiens, UniProt P42695).
T1 sequence (P42695 1-1498): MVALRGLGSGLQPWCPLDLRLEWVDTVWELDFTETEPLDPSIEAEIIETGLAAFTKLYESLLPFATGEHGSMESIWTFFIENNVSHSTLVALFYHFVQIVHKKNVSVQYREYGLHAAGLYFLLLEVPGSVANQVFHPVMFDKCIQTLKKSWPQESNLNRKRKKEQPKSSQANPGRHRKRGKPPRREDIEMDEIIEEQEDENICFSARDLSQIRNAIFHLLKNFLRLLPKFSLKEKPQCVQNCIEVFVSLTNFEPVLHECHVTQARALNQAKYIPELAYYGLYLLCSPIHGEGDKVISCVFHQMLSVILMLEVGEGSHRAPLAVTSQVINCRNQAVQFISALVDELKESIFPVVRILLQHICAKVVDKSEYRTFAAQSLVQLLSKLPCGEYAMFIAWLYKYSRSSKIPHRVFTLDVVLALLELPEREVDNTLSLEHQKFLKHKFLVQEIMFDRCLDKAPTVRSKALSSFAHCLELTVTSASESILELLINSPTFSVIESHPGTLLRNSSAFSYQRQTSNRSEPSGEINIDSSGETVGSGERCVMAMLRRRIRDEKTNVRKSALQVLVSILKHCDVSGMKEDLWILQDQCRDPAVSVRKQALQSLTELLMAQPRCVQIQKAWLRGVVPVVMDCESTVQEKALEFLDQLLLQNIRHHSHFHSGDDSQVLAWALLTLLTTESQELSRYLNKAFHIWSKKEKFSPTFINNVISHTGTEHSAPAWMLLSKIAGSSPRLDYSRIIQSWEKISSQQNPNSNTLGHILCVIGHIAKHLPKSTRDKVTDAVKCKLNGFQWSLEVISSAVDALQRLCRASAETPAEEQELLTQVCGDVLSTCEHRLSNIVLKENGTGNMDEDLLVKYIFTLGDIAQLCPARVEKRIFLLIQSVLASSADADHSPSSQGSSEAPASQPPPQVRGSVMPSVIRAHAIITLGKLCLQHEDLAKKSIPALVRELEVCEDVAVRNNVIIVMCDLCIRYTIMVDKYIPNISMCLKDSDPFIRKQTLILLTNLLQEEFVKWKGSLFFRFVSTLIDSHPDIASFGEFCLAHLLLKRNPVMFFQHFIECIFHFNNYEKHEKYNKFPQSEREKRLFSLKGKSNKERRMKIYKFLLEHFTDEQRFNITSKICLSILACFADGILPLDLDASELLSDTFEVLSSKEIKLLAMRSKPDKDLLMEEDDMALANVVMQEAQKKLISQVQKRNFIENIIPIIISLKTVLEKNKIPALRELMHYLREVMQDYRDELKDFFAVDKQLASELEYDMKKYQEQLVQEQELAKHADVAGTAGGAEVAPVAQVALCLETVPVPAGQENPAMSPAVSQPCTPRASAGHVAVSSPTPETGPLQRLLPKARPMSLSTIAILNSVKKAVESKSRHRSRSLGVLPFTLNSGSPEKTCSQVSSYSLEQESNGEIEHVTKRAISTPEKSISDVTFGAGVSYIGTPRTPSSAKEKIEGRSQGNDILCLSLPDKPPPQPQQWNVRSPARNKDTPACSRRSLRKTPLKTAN
The settings on record: 200 μM, insitu.

In experiment [4] the target is cysteines in MDA-MB-231 and Ramos cells (Homo sapiens, UniProt P41226). As to conditions: 200 μM, insitu, 231.
cysteines in MDA-MB-231 and Ramos cells (Homo sapiens, UniProt P41226), sequence (P41226 whole entry): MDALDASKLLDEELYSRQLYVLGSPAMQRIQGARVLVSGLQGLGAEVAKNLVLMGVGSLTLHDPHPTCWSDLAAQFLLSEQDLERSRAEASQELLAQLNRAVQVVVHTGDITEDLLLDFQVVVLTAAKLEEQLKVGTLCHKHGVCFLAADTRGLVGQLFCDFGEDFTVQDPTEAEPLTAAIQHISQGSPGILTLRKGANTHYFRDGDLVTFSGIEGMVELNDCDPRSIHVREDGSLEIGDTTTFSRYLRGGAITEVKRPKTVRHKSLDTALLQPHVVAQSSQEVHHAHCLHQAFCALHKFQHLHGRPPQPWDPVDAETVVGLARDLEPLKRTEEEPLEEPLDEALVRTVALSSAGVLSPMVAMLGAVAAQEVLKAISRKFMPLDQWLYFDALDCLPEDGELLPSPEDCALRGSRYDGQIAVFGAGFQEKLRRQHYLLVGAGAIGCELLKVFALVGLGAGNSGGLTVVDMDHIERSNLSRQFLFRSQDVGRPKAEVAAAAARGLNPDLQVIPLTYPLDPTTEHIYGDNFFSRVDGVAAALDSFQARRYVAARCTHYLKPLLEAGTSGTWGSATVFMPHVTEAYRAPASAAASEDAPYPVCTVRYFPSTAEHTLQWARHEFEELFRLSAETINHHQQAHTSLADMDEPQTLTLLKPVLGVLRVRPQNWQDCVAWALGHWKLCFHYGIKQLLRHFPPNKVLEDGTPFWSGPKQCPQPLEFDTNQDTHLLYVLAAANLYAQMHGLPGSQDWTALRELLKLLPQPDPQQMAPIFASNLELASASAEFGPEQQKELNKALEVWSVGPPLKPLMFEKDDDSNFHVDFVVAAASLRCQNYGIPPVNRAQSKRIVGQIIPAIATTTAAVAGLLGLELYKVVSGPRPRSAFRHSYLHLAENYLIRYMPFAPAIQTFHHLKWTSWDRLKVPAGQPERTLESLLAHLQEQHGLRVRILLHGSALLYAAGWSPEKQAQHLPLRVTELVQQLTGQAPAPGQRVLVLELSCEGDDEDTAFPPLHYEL
The target of experiment [5] is cysteines in MDA-MB-231 and Ramos cells (Homo sapiens, UniProt Q9NZB2). The settings on record: 200 μM, insitu, 231.
cysteines in MDA-MB-231 and Ramos cells (Homo sapiens, UniProt Q9NZB2), sequence (Q9NZB2 whole entry): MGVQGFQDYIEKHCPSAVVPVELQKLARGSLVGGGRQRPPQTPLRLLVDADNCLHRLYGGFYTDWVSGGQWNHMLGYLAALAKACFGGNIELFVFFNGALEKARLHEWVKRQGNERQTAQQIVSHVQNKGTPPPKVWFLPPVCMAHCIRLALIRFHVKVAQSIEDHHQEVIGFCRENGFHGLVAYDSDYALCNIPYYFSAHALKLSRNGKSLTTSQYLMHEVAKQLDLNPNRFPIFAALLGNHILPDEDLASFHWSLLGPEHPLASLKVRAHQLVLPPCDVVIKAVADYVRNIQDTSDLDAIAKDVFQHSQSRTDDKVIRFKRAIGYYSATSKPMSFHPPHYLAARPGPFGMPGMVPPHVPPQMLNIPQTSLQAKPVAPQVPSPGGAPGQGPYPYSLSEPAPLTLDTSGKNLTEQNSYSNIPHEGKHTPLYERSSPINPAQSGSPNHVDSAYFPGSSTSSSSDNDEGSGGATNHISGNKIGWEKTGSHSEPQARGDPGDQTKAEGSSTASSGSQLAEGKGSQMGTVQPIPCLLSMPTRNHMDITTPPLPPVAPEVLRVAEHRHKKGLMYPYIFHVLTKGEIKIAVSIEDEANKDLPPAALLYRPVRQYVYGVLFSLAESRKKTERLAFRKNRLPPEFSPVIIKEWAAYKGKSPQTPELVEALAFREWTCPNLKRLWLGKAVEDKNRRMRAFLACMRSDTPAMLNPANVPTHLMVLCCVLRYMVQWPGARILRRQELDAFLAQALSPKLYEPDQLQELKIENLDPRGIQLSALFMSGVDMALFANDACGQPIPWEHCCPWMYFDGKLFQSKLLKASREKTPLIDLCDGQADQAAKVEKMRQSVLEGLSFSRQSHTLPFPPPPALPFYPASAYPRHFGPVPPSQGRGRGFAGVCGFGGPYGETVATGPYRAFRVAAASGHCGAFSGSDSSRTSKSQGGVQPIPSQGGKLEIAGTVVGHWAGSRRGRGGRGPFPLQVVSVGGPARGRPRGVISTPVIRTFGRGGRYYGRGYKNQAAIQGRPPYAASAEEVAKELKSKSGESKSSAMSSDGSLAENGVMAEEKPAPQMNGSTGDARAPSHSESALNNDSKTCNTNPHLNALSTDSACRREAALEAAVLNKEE
Experiment [6] has as its target T2, cysteines in MDA-MB-231 and Ramos cells (Homo sapiens, UniProt Q8NEC7).
T2 sequence (Q8NEC7 1-633): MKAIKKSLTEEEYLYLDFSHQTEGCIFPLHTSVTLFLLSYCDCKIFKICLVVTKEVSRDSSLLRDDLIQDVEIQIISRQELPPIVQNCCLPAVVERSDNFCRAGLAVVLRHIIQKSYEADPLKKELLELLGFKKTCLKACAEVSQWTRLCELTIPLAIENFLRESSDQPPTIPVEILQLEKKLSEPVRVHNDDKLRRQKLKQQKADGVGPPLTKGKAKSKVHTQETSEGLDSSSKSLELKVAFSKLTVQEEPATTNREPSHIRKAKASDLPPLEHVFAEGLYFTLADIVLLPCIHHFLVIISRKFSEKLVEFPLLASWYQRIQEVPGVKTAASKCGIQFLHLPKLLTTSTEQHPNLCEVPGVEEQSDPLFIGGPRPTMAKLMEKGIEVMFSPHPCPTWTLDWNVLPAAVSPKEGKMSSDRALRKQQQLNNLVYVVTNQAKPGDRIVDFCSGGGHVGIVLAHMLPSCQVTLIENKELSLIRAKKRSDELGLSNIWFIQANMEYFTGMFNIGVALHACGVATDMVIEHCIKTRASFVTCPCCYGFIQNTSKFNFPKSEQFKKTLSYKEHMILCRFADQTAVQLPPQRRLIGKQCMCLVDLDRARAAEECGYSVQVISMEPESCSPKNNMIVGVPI
As to conditions: 200 μM, insitu.

Experiment [7] has as its target cysteines in MDA-MB-231 and Ramos cells (Homo sapiens, UniProt Q15796). As to conditions: 200 μM, insitu.
In experiment [8] the target is cysteines in MDA-MB-231 and Ramos cells (Homo sapiens, UniProt Q13232). The settings on record: 200 μM, insitu.
cysteines in MDA-MB-231 and Ramos cells (Homo sapiens, UniProt Q13232), sequence (Q13232 whole entry): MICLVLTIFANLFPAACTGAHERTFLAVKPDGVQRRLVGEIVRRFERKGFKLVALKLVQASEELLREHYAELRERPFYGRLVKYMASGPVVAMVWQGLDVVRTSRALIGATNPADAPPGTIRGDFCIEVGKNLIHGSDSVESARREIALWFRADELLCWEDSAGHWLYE

cysteines in MDA-MB-231 and Ramos cells (Homo sapiens, UniProt Q15796), sequence (Q15796 whole entry): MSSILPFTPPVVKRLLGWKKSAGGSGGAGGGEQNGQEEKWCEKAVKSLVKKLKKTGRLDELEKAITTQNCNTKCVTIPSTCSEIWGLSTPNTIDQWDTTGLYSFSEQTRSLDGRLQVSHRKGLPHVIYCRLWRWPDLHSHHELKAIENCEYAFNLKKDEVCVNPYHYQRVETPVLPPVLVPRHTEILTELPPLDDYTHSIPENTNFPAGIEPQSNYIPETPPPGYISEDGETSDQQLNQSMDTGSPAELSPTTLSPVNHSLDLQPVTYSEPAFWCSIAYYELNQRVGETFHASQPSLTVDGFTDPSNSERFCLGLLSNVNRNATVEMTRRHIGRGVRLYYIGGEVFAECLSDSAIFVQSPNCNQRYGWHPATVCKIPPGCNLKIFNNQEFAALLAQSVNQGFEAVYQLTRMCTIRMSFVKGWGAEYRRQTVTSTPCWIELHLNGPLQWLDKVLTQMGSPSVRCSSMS
cysteines in MDA-MB-231 and Ramos cells (Homo sapiens, UniProt Q9Y2S7), sequence (Q9Y2S7 52-368): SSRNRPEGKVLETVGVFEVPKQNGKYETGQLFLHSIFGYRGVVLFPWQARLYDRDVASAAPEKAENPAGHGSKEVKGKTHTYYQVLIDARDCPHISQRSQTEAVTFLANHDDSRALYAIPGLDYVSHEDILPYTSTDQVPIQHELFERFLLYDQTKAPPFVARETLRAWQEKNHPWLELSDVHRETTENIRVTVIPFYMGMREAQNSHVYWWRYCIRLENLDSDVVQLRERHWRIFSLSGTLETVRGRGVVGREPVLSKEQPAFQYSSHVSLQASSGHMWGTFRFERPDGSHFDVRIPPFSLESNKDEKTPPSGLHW
cysteines in MDA-MB-231 and Ramos cells (Homo sapiens, UniProt P16455), sequence (P16455 whole entry): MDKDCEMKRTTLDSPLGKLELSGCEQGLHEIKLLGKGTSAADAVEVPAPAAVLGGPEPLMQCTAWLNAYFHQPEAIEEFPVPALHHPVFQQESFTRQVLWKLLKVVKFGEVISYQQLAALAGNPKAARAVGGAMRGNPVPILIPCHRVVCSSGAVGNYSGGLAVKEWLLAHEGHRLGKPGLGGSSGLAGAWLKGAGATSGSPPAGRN

Consider `O=C(CCl)N1CCN(S(=O)(=O)c2ccccc2F)CC1` [compound 10], for which the “isoTOP-ABPP ratio, cysteine P16455_C145” value in experiment [1] is reported as 20.0. Moreover, the “isoTOP-ABPP ratio, cysteine Q9Y2S7_C143” value in experiment [2] was 13.9. For the same compound, the “isoTOP-ABPP ratio, cysteine P42695_C541” value in experiment [3] (231) was 20.0; in experiment [3] (ramos), 6.5. Besides, the “isoTOP-ABPP ratio, cysteine P41226_C599” value in experiment [4] worked out at 8.0.
In the case of `O=C(CCl)NC(=O)NC12CC3CC(CC(C3)C1)C2` [compound 12], the “isoTOP-ABPP ratio, cysteine Q9NZB2_C531” value in experiment [5] was determined as 20.0.
Consider `O=C(CCl)NCCc1c[nH]c2ccccc12` [compound 13], for which the figures for the “isoTOP-ABPP ratio, cysteine Q8NEC7_C140” value in experiment [6] (231) and in experiment [6] (ramos) were 1.8 and 20.0, respectively.
Turning to `O=C(CCl)NC12CC3CC(CC(C3)C1)C2` [compound 21], the “isoTOP-ABPP ratio, cysteine Q15796_C81” value in experiment [7] (231) stood at 1.3. Also, in experiment [3] (231), the “isoTOP-ABPP ratio, cysteine P42695_C541” value was 2.3. Besides, the “isoTOP-ABPP ratio, cysteine P41226_C599” value in experiment [4] is listed as 1.0. Further, the “isoTOP-ABPP ratio, cysteine Q9NZB2_C531” value in experiment [5] worked out at 1.6.
Consider `O=C(CCl)N1CCN(CC(=O)N2CCOCC2)CC1` [compound 29], for which the “isoTOP-ABPP ratio Q13232_C158” value in experiment [8] (ramos) turned out to be 1.5. For the same compound, the “isoTOP-ABPP ratio Q15796_C81” value in experiment [7] (ramos) amounted to 1.3.
With `C=CC(=O)N(Cc1cccnc1)c1cc(C(F)(F)F)cc(C(F)(F)F)c1` [compound 31], in experiment [1], the “isoTOP-ABPP ratio, P16455_C145” value was 1.2.
Consider `Cc1ccc(C=C(C#N)C(=O)NCCN2CCOCC2)cc1` [compound 41], for which the “isoTOP-ABPP ratio Q9Y2S7_C143” value in experiment [2] is 1.2.
As to `CC1CCc2ccccc2N1C(=O)CCl` (stereo not drawn) [compound 45], in experiment [8] (231), the “isoTOP-ABPP ratio Q13232_C158” value came out at 8.8. Also, the “isoTOP-ABPP ratio Q8NEC7_C140” value in experiment [6] (231) turned out to be 20.0.
